From patent publication US9340590B2 (priority 2011, dated 2016)
pIC50: −log10 of the molar value. Like-named read-outs stand apart in the source and are kept apart here. Positions of bridges follow the written chain, without caps; N, C: chain ends. Non-standard residues stand in square brackets, D forms with d. Residues, ends and D or L forms follow the SMILES beside them. Bip = N[C@@H](Cc1ccc(-c2ccccc2)cc1)C(=O)O; Phg = N[C@H](C(=O)O)c1ccccc1

Key:
Assay in all cases: cell-based
hNav1.3 = hNav1.3 (Homo sapiens, UniProt Q9NY46); settings: IonWorks Quattro, read-out: IWQ Use Nav1.3
Sequence of hNav1.3 (Q9NY46 whole entry, looked up): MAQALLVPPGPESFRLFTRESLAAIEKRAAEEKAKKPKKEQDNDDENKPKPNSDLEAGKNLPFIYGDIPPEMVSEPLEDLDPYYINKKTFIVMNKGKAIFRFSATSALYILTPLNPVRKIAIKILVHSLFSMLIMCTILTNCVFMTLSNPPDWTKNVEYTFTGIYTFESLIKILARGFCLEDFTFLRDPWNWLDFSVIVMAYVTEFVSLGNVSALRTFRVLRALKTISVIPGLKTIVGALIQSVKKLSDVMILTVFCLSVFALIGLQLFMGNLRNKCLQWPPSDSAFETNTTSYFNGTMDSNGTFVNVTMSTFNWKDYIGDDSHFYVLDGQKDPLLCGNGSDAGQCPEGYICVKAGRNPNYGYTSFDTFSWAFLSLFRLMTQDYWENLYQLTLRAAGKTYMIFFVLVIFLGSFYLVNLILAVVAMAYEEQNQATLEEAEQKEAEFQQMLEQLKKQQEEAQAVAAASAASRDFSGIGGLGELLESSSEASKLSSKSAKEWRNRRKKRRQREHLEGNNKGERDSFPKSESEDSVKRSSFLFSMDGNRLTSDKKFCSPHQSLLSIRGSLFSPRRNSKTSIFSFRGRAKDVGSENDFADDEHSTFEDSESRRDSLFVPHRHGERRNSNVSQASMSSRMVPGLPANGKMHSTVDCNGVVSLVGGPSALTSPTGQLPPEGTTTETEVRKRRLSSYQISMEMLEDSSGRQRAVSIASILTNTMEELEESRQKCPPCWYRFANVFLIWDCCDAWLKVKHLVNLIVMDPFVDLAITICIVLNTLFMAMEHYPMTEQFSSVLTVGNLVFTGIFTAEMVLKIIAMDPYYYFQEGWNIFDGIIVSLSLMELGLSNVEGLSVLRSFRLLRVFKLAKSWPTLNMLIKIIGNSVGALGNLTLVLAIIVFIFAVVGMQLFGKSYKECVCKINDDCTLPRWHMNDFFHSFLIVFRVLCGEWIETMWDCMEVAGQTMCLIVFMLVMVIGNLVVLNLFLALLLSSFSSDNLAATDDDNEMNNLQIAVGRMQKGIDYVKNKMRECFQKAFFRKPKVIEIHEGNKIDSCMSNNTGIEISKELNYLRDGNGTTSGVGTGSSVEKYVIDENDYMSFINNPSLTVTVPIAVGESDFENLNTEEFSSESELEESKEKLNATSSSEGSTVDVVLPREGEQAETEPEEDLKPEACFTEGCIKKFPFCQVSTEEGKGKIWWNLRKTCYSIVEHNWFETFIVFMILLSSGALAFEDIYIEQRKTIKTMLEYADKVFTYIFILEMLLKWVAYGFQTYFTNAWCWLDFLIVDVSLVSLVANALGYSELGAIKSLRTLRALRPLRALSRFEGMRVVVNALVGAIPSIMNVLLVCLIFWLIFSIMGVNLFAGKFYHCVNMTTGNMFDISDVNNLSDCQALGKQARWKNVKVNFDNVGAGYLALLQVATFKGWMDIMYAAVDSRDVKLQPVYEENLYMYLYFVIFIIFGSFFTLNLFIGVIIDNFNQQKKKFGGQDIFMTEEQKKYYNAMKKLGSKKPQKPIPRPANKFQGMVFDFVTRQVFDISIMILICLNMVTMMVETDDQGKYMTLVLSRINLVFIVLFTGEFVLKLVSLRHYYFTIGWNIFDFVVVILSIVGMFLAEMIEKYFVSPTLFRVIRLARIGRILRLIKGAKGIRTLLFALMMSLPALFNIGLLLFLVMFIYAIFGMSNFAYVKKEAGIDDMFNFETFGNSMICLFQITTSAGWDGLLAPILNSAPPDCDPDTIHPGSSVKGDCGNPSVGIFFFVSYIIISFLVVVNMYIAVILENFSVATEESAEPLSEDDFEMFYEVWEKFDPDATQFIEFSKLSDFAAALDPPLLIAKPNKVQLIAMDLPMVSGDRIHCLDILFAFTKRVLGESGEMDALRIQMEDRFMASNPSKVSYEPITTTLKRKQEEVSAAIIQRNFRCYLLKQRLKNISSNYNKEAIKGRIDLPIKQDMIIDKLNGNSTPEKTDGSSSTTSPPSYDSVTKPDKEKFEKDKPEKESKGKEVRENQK

hNav1.7 = hNav1.7 (Homo sapiens, UniProt Q15858); format: cell-based; settings: read-out: IWQ Use Nav1.7
Sequence of hNav1.7 (Q15858 whole entry, looked up): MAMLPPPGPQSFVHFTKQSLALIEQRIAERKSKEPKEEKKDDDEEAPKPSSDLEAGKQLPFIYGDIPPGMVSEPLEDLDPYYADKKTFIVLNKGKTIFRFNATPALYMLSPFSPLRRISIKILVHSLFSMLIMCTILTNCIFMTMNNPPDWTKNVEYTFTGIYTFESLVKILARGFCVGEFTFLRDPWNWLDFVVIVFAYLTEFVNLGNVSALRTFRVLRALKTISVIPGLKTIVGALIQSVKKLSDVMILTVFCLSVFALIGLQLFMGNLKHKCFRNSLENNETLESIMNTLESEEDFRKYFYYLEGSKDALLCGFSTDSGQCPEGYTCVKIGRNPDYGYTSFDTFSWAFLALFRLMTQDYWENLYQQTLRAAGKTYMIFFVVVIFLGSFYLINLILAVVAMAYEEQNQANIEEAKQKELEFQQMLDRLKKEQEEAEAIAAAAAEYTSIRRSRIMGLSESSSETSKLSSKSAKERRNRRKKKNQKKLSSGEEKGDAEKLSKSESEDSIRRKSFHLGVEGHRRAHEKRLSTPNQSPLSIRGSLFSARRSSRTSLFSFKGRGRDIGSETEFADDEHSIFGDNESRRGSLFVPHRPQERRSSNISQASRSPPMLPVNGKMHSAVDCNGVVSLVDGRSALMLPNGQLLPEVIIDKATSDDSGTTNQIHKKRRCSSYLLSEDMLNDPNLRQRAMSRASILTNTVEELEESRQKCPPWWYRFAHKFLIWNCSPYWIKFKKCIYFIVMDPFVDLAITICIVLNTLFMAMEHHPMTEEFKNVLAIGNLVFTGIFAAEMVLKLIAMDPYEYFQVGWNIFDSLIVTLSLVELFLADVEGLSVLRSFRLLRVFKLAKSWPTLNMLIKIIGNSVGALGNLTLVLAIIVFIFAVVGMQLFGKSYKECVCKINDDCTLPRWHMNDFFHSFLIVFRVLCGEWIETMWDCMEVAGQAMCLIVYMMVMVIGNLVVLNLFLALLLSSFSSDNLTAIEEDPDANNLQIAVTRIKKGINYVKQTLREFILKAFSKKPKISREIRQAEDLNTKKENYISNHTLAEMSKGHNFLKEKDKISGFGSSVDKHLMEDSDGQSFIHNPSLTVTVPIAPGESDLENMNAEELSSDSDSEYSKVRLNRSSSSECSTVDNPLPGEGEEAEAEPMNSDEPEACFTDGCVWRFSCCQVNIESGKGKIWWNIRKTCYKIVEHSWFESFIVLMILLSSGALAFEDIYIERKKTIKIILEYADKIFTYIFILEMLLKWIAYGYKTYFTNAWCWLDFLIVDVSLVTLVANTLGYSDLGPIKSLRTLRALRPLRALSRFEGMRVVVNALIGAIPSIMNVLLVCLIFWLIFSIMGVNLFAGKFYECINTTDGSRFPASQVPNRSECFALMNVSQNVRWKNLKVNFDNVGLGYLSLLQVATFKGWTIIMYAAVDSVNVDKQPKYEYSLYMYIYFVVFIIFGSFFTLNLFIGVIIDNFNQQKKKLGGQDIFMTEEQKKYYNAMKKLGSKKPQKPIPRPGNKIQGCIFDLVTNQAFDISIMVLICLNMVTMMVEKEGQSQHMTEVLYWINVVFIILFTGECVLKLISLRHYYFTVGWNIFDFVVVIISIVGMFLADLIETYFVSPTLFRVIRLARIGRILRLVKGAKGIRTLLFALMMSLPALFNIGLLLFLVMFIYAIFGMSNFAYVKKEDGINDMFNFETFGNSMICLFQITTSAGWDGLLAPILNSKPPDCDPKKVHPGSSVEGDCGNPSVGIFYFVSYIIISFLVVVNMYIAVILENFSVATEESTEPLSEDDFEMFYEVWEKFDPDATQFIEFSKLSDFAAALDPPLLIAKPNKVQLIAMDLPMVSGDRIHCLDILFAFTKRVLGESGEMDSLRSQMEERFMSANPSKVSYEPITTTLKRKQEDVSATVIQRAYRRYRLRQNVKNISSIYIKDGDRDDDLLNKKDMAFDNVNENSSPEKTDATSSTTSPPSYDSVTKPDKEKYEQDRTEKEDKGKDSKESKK

hNav1.5 = hNav1.5 (Homo sapiens, UniProt Q14524); settings: for pIC50: IonWorks Quattro, read-out: IWQ Use Nav1.5
[1] = use-dependent protocol, hNav1.3
[2] = IonWorks Quattro, use-dependent protocol, hNav1.7
[3] = use-dependent protocol, hNav1.5

Question: What does the source list for `CC[C@H](C)[C@@H]1NC(=O)[C@@H]2CSSC[C@@H]3NC(=O)[C@H](C(C)C)NC(=O)[C@H](CC(C)C)NC(=O)[C@H](CC(N)=O)NC(=O)[C@@H]4CCCN4C(=O)[C@H](CCCNC(=NC)NC)NC(=O)[C@H](CSSC[C@H](NC(=O)[C@@H](N)CC(=O)O)C(=O)N[C@@H](CC(C)C)C(=O)NCC(=O)N[C@@H](Cc4ccccc4)C(=O)N[C@@H](CCSC)C(=O)N[C@@H](CCCNC(=N)N)C(=O)N[C@@H](CCCCN)C(=O)N2)NC(=O)[C@H](CSSC[C@@H](C(=O)N[C@@H](CCCCN)C(=O)N[C@@H](Cc2ccc(O)cc2)C(=O)N[C@H](C(=O)N[C@@H](Cc2ccccc2)C(N)=O)C(C)C)NC(=O)[C@H](Cc2c[nH]c4ccccc24)NC(=O)[C@H](CCCCN)NC(=O)[C@H](Cc2c[nH]cn2)NC(=O)[C@H]([C@@H](C)O)NC(=O)[C@H](CCCNC(=N)N)NC(=O)[C@H](CO)NC3=O)NC(=O)[C@H](CCCCN)NC(=O)[C@H](CC(=O)O)NC(=O)[C@H](CC(N)=O)NC(=O)[C@H](CC(=O)O)NC(=O)[C@@H]2CCCN2C1=O` [compound 315]?
Answer: pIC50 (hNav1.3; Use): 7.00; pIC50 (hNav1.7): 6.85; IC50 (hNav1.5; IWQ Use Nav1.5 (μM)): 10.5 µM

Question: `CC[C@H](C)[C@@H]1NC(=O)[C@@H]2CSSC[C@@H]3NC(=O)[C@H](C(C)C)NC(=O)[C@H](CC(C)C)NC(=O)[C@H](CC(N)=O)NC(=O)[C@@H]4CCCN4C(=O)[C@H](CCCNC(=N)N)NC(=O)[C@H](CSSC[C@H](NC(=O)[C@@H](N)CC(=O)O)C(=O)N[C@@H](CC(C)C)C(=O)N[C@@H](CCCNC(=N)N)C(=O)N[C@@H](CCSC)C(=O)N[C@@H](CCSC)C(=O)N[C@@H](CCCNC(=N)N)C(=O)N[C@@H](CCCCN)C(=O)N2)NC(=O)[C@H](CSSC[C@@H](C(=O)N[C@@H](CCCCN)C(=O)N[C@@H](Cc2ccc(O)cc2)C(=O)N[C@H](C(=O)N[C@@H](Cc2ccccc2)C(N)=O)C(C)C)NC(=O)[C@H](Cc2c[nH]c4ccccc24)NC(=O)[C@H](CCCCN)NC(=O)[C@H](Cc2c[nH]cn2)NC(=O)[C@H]([C@@H](C)O)NC(=O)[C@H](CCCNC(=N)N)NC(=O)[C@H](CO)NC3=O)NC(=O)[C@H](CCCCN)NC(=O)[C@H](CC(=O)O)NC(=O)[C@H](CC(N)=O)NC(=O)[C@H](CC(=O)O)NC(=O)[C@@H]2CCCN2C1=O` [compound 694] (H-DCLRMMRKCIPDNDKCCRPNLVCSRTHKWCKYVF-NH2; disulfide 2-17, 9-23, 16-30) was tested. Which pIC50 (hNav1.3; [1]) did it give?
Answer: 6.54

Question: And the pIC50 (hNav1.7; [2])?
Answer: 7.10

Question: And the pIC50 (hNav1.5; [3])?
Answer: < 5.30

Question: `CC[C@H](C)[C@@H]1NC(=O)[C@@H]2CSSC[C@@H]3NC(=O)[C@H](c4ccccc4)NC(=O)[C@H](CC(C)C)NC(=O)[C@H](CC(N)=O)NC(=O)[C@@H]4CCCN4C(=O)[C@H](CCCNC(=N)N)NC(=O)[C@H](CSSC[C@H](NC(=O)[C@@H](N)CC(=O)O)C(=O)N[C@@H](CC(C)C)C(=O)NCC(=O)N[C@@H](Cc4ccccc4)C(=O)N[C@@H](CCSC)C(=O)N[C@@H](CCCNC(=N)N)C(=O)N[C@@H](CCCCN)C(=O)N2)NC(=O)[C@H](CSSC[C@@H](C(=O)N[C@@H](CCCCN)C(=O)N[C@@H](Cc2ccc(O)cc2)C(=O)N[C@H](C(=O)N[C@@H](Cc2ccccc2)C(N)=O)C(C)C)NC(=O)[C@H](Cc2c[nH]c4ccccc24)NC(=O)[C@H](CCCCN)NC(=O)[C@H](Cc2c[nH]cn2)NC(=O)[C@H]([C@@H](C)O)NC(=O)[C@H](CCCNC(=N)N)NC(=O)[C@H](CO)NC3=O)NC(=O)[C@H](CCCCN)NC(=O)[C@H](CC(=O)O)NC(=O)[C@H](CC(N)=O)NC(=O)[C@H](CC(=O)O)NC(=O)[C@@H]2CCCN2C1=O` [compound 330] (H-DCLGFMRKCIPDNDKCCRPNL[Phg]CSRTHKWCKYVF-NH2; disulfide 2-17, 9-23, 16-30) was tested. Which pIC50 (hNav1.3; Use) did it give?
Answer: 7.15

Question: What about the pIC50 (hNav1.7; IonWorks Quattro, Use) of the same compound?
Answer: 6.74

Question: What about the pIC50 (hNav1.5; Use) of the same compound?
Answer: 5.33

Question: With `CC[C@H](C)[C@@H]1NC(=O)[C@@H]2CSSC[C@@H]3NC(=O)[C@H](C(C)C)NC(=O)[C@H](CC(C)C)NC(=O)[C@H](CC(N)=O)NC(=O)[C@@H]4CCCN4C(=O)[C@H](CCCNC(=N)N)NC(=O)[C@H](CSSC[C@H](NC(=O)[C@@H](N)CC(=O)O)C(=O)N[C@@H](CC(C)C)C(=O)NCC(=O)N(C)[C@@H](C(C)C)C(=O)N[C@@H](CC(C)C)C(=O)N[C@@H](CCCNC(=N)N)C(=O)N[C@@H](CCCCN)C(=O)N2)NC(=O)[C@H](CSSC[C@@H](C(=O)N[C@@H](CCCCN)C(=O)N[C@@H](Cc2ccc(O)cc2)C(=O)N[C@H](C(=O)N[C@@H](Cc2ccccc2)C(N)=O)C(C)C)NC(=O)[C@H](Cc2c[nH]c4ccccc24)NC(=O)[C@H](CCCCN)NC(=O)[C@H](Cc2c[nH]cn2)NC(=O)[C@H]([C@@H](C)O)NC(=O)[C@H](CCCNC(=N)N)NC(=O)[C@H](CO)NC3=O)NC(=O)[C@H](CCCCN)NC(=O)[C@H](CC(=O)O)NC(=O)[C@H](CC(N)=O)NC(=O)[C@H](CC(=O)O)NC(=O)[C@@H]2CCCN2C1=O` [compound 672] as the compound, how does the pIC50 (hNav1.3; [1]) read?
Answer: 6.12

Question: And the pIC50 (hNav1.7; [2])?
Answer: 6.33

Question: What about the pIC50 (hNav1.5; [3]) of the same compound?
Answer: < 5.30

Question: How did the pIC50 (hNav1.3; use-dependent block, hNav1.3) turn out when `CC[C@H](C)[C@@H]1NC(=O)[C@@H]2CSSC[C@@H]3NC(=O)[C@H](C(C)C)NC(=O)[C@H](CC(C)C)NC(=O)[C@H](CC(N)=O)NC(=O)[C@@H]4CCCN4C(=O)[C@H](CCCNC(=N)N)NC(=O)[C@H](CSSC[C@H](NC(=O)[C@@H](N)CC(=O)O)C(=O)N[C@@H](CC(C)C)C(=O)NCC(=O)N[C@@H](C)C(=O)N[C@@H](Cc4ccccc4)C(=O)N[C@@H](CCCNC(=N)N)C(=O)N[C@@H](CCCCN)C(=O)N2)NC(=O)[C@H](CSSC[C@@H](C(=O)N[C@@H](CCCCN)C(=O)N[C@@H](Cc2ccc(O)cc2)C(=O)N[C@H](C(=O)N[C@@H](Cc2ccccc2)C(=O)O)C(C)C)NC(=O)[C@H](Cc2c[nH]c4ccccc24)NC(=O)[C@H](CO)NC(=O)[C@H](Cc2c[nH]cn2)NC(=O)[C@H]([C@@H](C)O)NC(=O)[C@H](CCCNC(=N)N)NC(=O)[C@H](CO)NC3=O)NC(=O)[C@H](CCCCN)NC(=O)[C@H](CC(=O)O)NC(=O)[C@H](CC(N)=O)NC(=O)[C@H](CC(=O)O)NC(=O)[C@@H]2CCCN2C1=O` [compound 835] (H-DCLGAFRKCIPDNDKCCRPNLVCSRTHSWCKYVF-OH; disulfide 2-17, 9-23, 16-30) was run?
Answer: < 5.30

Question: And the pIC50 (hNav1.7; IonWorks Quattro, use-dependent block, hNav1.7)?
Answer: < 5.30

Question: And the pIC50 (hNav1.5; use-dependent block, hNav1.5)?
Answer: < 5.30

Question: `CC[C@H](C)[C@@H]1NC(=O)[C@@H]2CSSC[C@@H]3NC(=O)[C@H](C(C)C)NC(=O)[C@H](CC(C)C)NC(=O)[C@H](CC(N)=O)NC(=O)[C@@H]4CCCN4C(=O)[C@H](CCCNC(=N)N)NC(=O)[C@H](CSSC[C@H](NC(=O)[C@@H](N)CC(=O)O)C(=O)N[C@@H](CC(C)C)C(=O)NCC(=O)N[C@@H](Cc4ccccc4)C(=O)N[C@@H](CCSC)C(=O)N[C@@H](CCCNC(=N)N)C(=O)N[C@@H](CCCCN)C(=O)N2)NC(=O)[C@H](CSSC[C@@H](C(=O)N[C@@H](CCCCN)C(=O)N[C@@H](Cc2ccc(O)cc2)C(=O)N[C@H](C(=O)N[C@@H](Cc2ccccc2)C(N)=O)C(C)C)NC(=O)[C@H](Cc2ccc(-c4ccccc4)cc2)NC(=O)[C@H](CCCCN)NC(=O)[C@H](Cc2c[nH]cn2)NC(=O)[C@H]([C@@H](C)O)NC(=O)[C@H](CCCNC(=N)N)NC(=O)[C@H](CO)NC3=O)NC(=O)[C@H](CCCCN)NC(=O)[C@H](CC(=O)O)NC(=O)[C@H](CC(N)=O)NC(=O)[C@H](CC(=O)O)NC(=O)[C@@H]2CCCN2C1=O` [compound 360] (H-DCLGFMRKCIPDNDKCCRPNLVCSRTHK[Bip]CKYVF-NH2; disulfide 2-17, 9-23, 16-30) was tested. Which pIC50 (hNav1.3; Table 24, use, […]) did it give?
Answer: 5.16

Question: What about the pIC50 (hNav1.7; Table 24, IonWorks Quattro, use, […]) of the same compound?
Answer: 5.32

Question: And the pIC50 (hNav1.5; Table 24, use, […])?
Answer: 5.01
